The assay relates to HUVEC cells (Human Umbilical Vein Endothelial Cells). The experiment in a line: Proliferation assay with LL37-loaded nanoparticles (CCK-8). Type of assay: cell-based. To be noted: 0.5 and 0.1 μg/ml LL37, after 48 hours, FIG. 6.

On to “free LL37: Cathelicidin antimicrobial peptide LL37, SEQ ID NO 1 (LLGDFFRKSKEKIGKEFKRIVQRIKDFLRNLVPRTES), non-encapsulated”, for which the “cell proliferation compared with control groups” value is “greater cell proliferation”.

The values above are taken from US10206886B2, “Lipid nanoparticles for wound healing” (Praxis Biopharma Research Institute, priority 2013, dated 2019).
